Measurements as given in patent US20240382540A1, “MODULATION OF FUSOBACTERIUM VARIUM TO PREVENT BOVINE LIVER ABSCESSES AND IMPROVE CATTLE PERFORMANCE” (priority 2023, published 2024).

Key:
F. varium [1] = assay: Rumen fluid enrichment cultures with lactate; type: cell-based, Fusobacterium varium; settings: lactate present in rumen fluid enrichment cultures
Source text: Microbial lactate utilization is linked to several pathogenic mechanisms. […] Currently it is unknown if some or all cattle-associated F. varium strains are able to derive energy from lactate. […] Thus, it is possible that the acquisition of this or a similar mobile genetic element has provided some bovine F. varium strains with the capability of utilizing lactate as a source of energy and a means for avoiding host immunity.
This identification was based on 16S rRNA sequencing using close to the full-length gene (27F/1492R primers), a reliable method for determining bacterial species (FIG. 1).

F. necrophorum = assay: Antimicrobial susceptibility testing: growth of F. necrophorum strains exposed to tylosin and monensin; type: cell-based, Fusobacterium necrophorum; settings: for decline/reduction in growth: F. necrophorum strain 8L1; for growth inhibition: all three F. necrophorum strains tested
Source text: (§1) In an effort to understand the differential response of Fusobacterium species to antimicrobial agents commonly used in livestock, we examined the effect of tylosin and monensin on the growth of reference strains and newly isolated strains of F. varium and F. necrophorum.
(§2) To set up the experiment, we exposed three strains each of F. varium and F. necrophorum to tylosin and monensin at concentrations relevant to ruminal environments.
Strains A and 8L1 were most affected, with both displaying a 98% reduction in growth. […] In this context, growth reductions of 44-66% were observed (P<0.05).

F. varium [2] = assay: Antimicrobial susceptibility testing: growth of F. varium strains exposed to tylosin and monensin; type: cell-based, Fusobacterium varium; settings: for growth inhibition: all tested F. varium strains
Source text: as §1, §2

[3] = system: Fusobacterium necrophorum; settings: grain-fed cattle; antibiotic as component of cattle feed; cited from earlier work
[4] = concentrations relevant to ruminal environments

| Compound | decline/reduction in growth (F. necrophorum) | growth inhibition (F. necrophorum) | growth inhibition (F. varium [2]; [4]) | ruminal concentrations of Fusobacterium necrophorum [3] | also measured |
| --- | --- | --- | --- | --- | --- |
| CC(O)C(=O)O (stereo not drawn) [lactate] | – | – | – | – | enrichment of native F. varium strains (F. varium [1]): up to 35,000 fold |
| CC[C@@]1([C@@H]2O[C@@H]([C@H]3O[C@@](O)(CO)[C@H](C)C[C@@H]3C)C[C@@H]2C)CC[C@H]([C@]2(C)CC[C@]3(C[C@H](O)[C@@H](C)[C@@H]([C@@H](C)[C@@H](OC)[C@H](C)C(=O)O)O3)O2)O1 [monensin] | 98% | more than 87% | did not show substantial growth inhibition | – | reduction in growth (F. necrophorum; F. necrophorum strain A): 98%; growth reduction (F. necrophorum; F. necrophorum, medium containing only casein pancreatic digest and yeast extract as carbon sources): 44-66%; decrease in growth (F. varium [2]; F. varium bovine isolates, concentrations relevant to ruminal environments): 15%; growth response (F. varium [2]; reference strain F. varium NCTC 10560): no significant response |
| CC[C@H]1OC(=O)C[C@@H](O)[C@H](C)[C@@H](O[C@@H]2O[C@H](C)[C@@H](O[C@H]3C[C@@](C)(O)[C@@H](O)[C@H](C)O3)[C@H](N(C)C)[C@H]2O)[C@@H](CC=O)C[C@@H](C)C(=O)/C=C/C(C)=C/[C@@H]1CO[C@@H]1O[C@H](C)[C@@H](O)[C@@H](OC)[C@H]1OC [tylosin] | 92% | over 67% | none of the tested strains exhibited substantial growth inhibition | significantly reduced | decline in growth (F. necrophorum; F. necrophorum strain FNA): 94%; decline in growth (F. varium [2]; strain F. varium DNLA-8, concentrations relevant to ruminal environments): 13% |
| virginiamycin | – | – | – | significantly reduced | – |
